Assay results taken from ChEMBL document CHEMBL3102705, “Design, synthesis and investigation on the structure-activity relationships of N-substituted 2-aminothiazole derivatives as antitubercular agents” (Eur J Med Chem, 2014).
≈ marks a conversion by molar mass, not a printed value.

Key:
Assay type in all cases: functional
[1] = system: Mycobacterium tuberculosis; test: Antitubercular activity against moxifloxacin-resistant Mycobacterium tuberculosis H37Rv ATCC 27294 assessed as growth inhibition after 16 to 24 hrs by microplate-Alamar Blue assay
[2] = system: Mycobacterium tuberculosis; test: Antitubercular activity against capreomycin-resistant Mycobacterium tuberculosis H37Rv ATCC 27294 assessed as growth inhibition after 16 to 24 hrs by microplate-Alamar Blue assay
[3] = system: Mycobacterium tuberculosis; test: Antitubercular activity against isoniazid-resistant Mycobacterium tuberculosis H37Rv ATCC 27294 assessed as growth inhibition after 16 to 24 hrs by microplate-Alamar Blue assay
[4] = system: Mycobacterium tuberculosis; test: Antitubercular activity against rifampin-resistant Mycobacterium tuberculosis H37Rv ATCC 27294 assessed as growth inhibition after 16 to 24 hrs by microplate-Alamar Blue assay

Row | SMILES | MIC [1] [µM] | MIC [2] [µM] | MIC [3] [µM] | MIC [4] [µM]
1 | Fc1ccc(C(F)(F)F)cc1-c1csc(Nc2ccc(Cl)cc2)n1 | 15.5 (≈ 5.78 µg/mL) | 17.4 (≈ 6.49 µg/mL) | 10.4 (≈ 3.88 µg/mL) | 10.9 (≈ 4.06 µg/mL)
2 | Fc1ccc(C(F)(F)F)cc1-c1csc(Nc2cc(Cl)cc(Cl)c2)n1 | 12 (≈ 4.89 µg/mL) | 12 (≈ 4.89 µg/mL) | 7.1 (≈ 2.89 µg/mL) | 9.7 (≈ 3.95 µg/mL)
3 | NNC(=O)c1ccncc1 [ISONIAZID] | 3.6 (≈ 0.494 µg/mL) | 0.81 (≈ 0.111 µg/mL) | > 8 | 0.85 (≈ 0.117 µg/mL)
4 | O=[N+]([O-])c1cn2c(n1)OC[C@@H](OCc1ccc(OC(F)(F)F)cc1)C2 [PRETOMANID] | 0.88 (≈ 0.316 µg/mL) | 1.26 (≈ 0.453 µg/mL) | 0.43 (≈ 0.154 µg/mL) | 0.51 (≈ 0.183 µg/mL)
5 | CO[C@H]1/C=C/O[C@@]2(C)Oc3c(C)c(O)c4c(O)c(c(/C=N/N5CCN(C)CC5)c(O)c4c3C2=O)NC(=O)/C(C)=C\C=C\[C@H](C)[C@H](O)[C@@H](C)[C@@H](O)[C@@H](C)[C@H](OC(C)=O)[C@@H]1C [RIFAMPIN] | 0.14 (≈ 0.115 µg/mL) | 0.05 (≈ 0.0411 µg/mL) | 0.06 (≈ 0.0494 µg/mL) | > 4
